Experimental data as given in patent US11628153B2, “Agent for preventing or amelioriting nocturia” (Kao Corporation, priority 2018, dated 2023).

System: Spontaneously Hypertensive Rats (SHRs)
Assay: Urination behavior recording in metabolic cages after 8 weeks of oral intake of rosmarinic acid-containing feed (urinary frequency, urine volume)
Type: in vivo, rat
Details: for Mean urinary frequency of rats during rest period / Mean urine volume of rats during rest period / Mean urinary frequency of rats during activity period / Mean urine volume of rats during activity period: 0.5 mass % rosmarinic acid feed, 8 weeks, mean ± standard error, n=12; for Significant difference in mean urinary frequency, treatment vs control group / Significant difference in mean urine volume, treatment vs control group: Student-t test
Excerpt: For the test, Spontaneously Hypertensive Rats (SHRs, see American Journal of Physiology, 1998, vol. 275, p. R1279-1286 and Neurourology and Urodynamics, 2005, vol. 24, p. 295-300) (42-week-old, female, obtained from Japan SLC) were used. SHRs in the treatment group (n=12) ingested, for 8 weeks, a rosmarinic acid-containing feed (composition: 0.5 mass % rosmarinic acid (obtained from Carbosynth, Inc.), 66 mass % starch, 20 mass % casein, 5 mass % corn oil, 4 mass % cellulose, 3.5 mass % mineral, and 1 mass % vitamin). SHRs in the control group (n=12) ingested, for 8 weeks, a rosmarinic acid-free feed (composition: 66.5 mass % starch, 20 mass % casein, 5 mass % corn oil, 4 mass % cellulose, 3.5 mass % mineral, and 1 mass % vitamin). Then, their urination behavior was recorded in metabolic cages. Note that, before the recording in the metabolic cages, 4-day adaptation period was provided, and they were reared individually. The urination behavior recording (measurement of the urinary frequency and the urine volume) was carried out under conditions with free access to feed and water and under conditions with a 12/12-h light/dark cycle. The urine volume was weighed with an electronic balance while the urine was collected every urination. Note that a past report (see Neurourology and Urodynamics, 2017, vol. 36, p. 1034-1038) was consulted; the start time of a light period corresponding to a rest period of each rat was set to ZT0; the light period was divided into two periods of ZT0-6 and ZT6-12; and the urinary frequency during each period was defined as an indicator for nocturia. In addition, a dark period corresponding to an activity period was divided into two periods of ZT12-18 and ZT18-24; and the urinary frequency during each period was defined as an indicator for daytime frequent urination. […] The results were means±standard errors. To compare the inter-group means, Student-t test was used.

O=C(/C=C/c1ccc(O)c(O)c1)O[C@H](Cc1ccc(O)c(O)c1)C(=O)O [rosmarinic acid]
Mean urinary frequency of rats during rest period (ZT0-6 (rest period)): 2.5 ± 0.2 times/6 h
Mean urine volume of rats during rest period (ZT0-6 (rest period)): 1.7 ± 0.1 mL/6 h
Significant difference in mean urinary frequency, treatment vs control group (ZT0-6 (rest period)): N.S.
Significant difference in mean urine volume, treatment vs control group (ZT0-6 (rest period)): N.S.
Mean urinary frequency of rats during rest period (ZT6-12 (rest period)): 2.4 ± 0.2 times/6 h
Mean urine volume of rats during rest period (ZT6-12 (rest period)): 1.1 ± 0.1 mL/6 h
Significant difference in mean urine volume, treatment vs control group (ZT6-12 (rest period)): N.S.
Mean urinary frequency of rats during activity period (ZT12-18 (activity period)): 6.7 ± 1.1 times/6 h
Mean urine volume of rats during activity period (ZT12-18 (activity period)): 2.4 ± 0.4 mL/6 h
Significant difference in mean urinary frequency, treatment vs control group (ZT12-18 (activity period)): N.S.
Significant difference in mean urine volume, treatment vs control group (ZT12-18 (activity period)): N.S.
Mean urinary frequency of rats during activity period (ZT18-24 (activity period)): 6.0 ± 0.7 times/6 h
Mean urine volume of rats during activity period (ZT18-24 (activity period)): 2.4 ± 0.2 mL/6 h
Significant difference in mean urinary frequency, treatment vs control group (ZT18-24 (activity period)): N.S.
Significant difference in mean urine volume, treatment vs control group (ZT18-24 (activity period)): N.S.
Significant difference in the mean urine volume during each time zone, treatment vs control group (all time zones (ZT0-24)): undetected
